According to patent US9314030B2, “Particulate wood preservative and method for producing same” (Koppers Performance Chemicals Inc., priority 2004, dated 2016):
Where two headings read alike, the source gives them in different places.

Columns and labels:
[1] = treated wood; cited from earlier work
[2] = Wet milling of chlorothalonil with 0.5-0.6 mm cerium-doped zirconium oxide beads, particle size; format: physicochemical
Procedure: The laboratory-sized vertical mill was provided by CB Mills, model# L-3-J. The mill has a 2 liter capacity and is jacketed for cooling. Unless otherwise specified, ambient water was cycled through the mill cooling jacket during operation. The internal dimensions are 3.9″ diameter by 9.1″ height. The mill uses a standard 3×3″ disk agitator (mild steel) on a stainless steel shaft, and it operates at 2,620 rpm.
The media used in this Example was 0.4-0.5 mm zirconium silicate beads supplied by CB Mills. All particle size determinations were made with a Sedigraph™ 5100T manufactured by Micromeritics, which uses x-ray detection and bases calculations of size on Stokes' Law.
The same mill and conditions were used in this experiment as in experiment 1. However, the grinding media was 0.5-0.6 mm cerium-doped zirconium oxide beads obtained from CB Mills. The density of the cerium doped zirconium oxide is ˜6.0 g/cm^3. […] The total batch weight was about 600 g.

[3] = 0.5-0.6 mm cerium-doped zirconium oxide, milling time 0 min
[4] = 0.5-0.6 mm cerium-doped zirconium oxide, milling time 90 min
[5] = 0.5-0.6 mm cerium-doped zirconium oxide, milling time 240 min
[6] = 0.5 mm zirconia milling media, in 90 minutes
[7] = 0.5 mm zirconia milling media, in 6 hours
[8] = 0.4-0.5 mm zirconium silicate, milling time 0 min
[9] = 0.4-0.5 mm zirconium silicate, milling time 30 min
[10] = 0.4-0.5 mm zirconium silicate, milling time 60 min
[11] = 0.4-0.5 mm zirconium silicate, milling time 90 min
[12] = 0.4-0.5 mm zirconium silicate, milling time 120 min
[13] = 0.4-0.5 mm zirconium silicate, milling time 150 min
[14] = 0.4-0.5 mm zirconium silicate, milling time 180 min
[15] = 0.4-0.5 mm zirconium silicate, milling time 270 min
[16] = 0.4-0.5 mm zirconium silicate, milling time 450 min

Question: For copper citrate, which “copper in leachate relative to CCA baseline” value [1] is on record?
Answer: Its value is “over fifteen times the baseline concentration”.

Question: What does the source list for `N#Cc1c(Cl)c(Cl)c(Cl)c(C#N)c1Cl` [chlorothalonil]?
Answer: Particle Size Data-Volume % With Diamter Greater Than 1 μm [2, 3]: 92 Volume %; Particle Size Data-Volume % With Diamter Greater Than 2 μm [2, 3]: 77 Volume %; Particle Size Data-Volume % With Diamter Greater Than 5 μm [2, 3]: 30 Volume %; Particle Size Data-Volume % With Diamter Greater Than 10 μm [2, 3]: 8 Volume %; Particle Size Data-Volume % With Diamter Greater Than 0.4 μm [2, 4]: 22 Volume %; Particle Size Data-Volume % With Diamter Greater Than 1 μm [2, 4]: 3 Volume %; Particle Size Data-Volume % With Diamter Greater Than 2 μm [2, 4]: 3 Volume %; Particle Size Data-Volume % With Diamter Greater Than 5 μm [2, 4]: 3 Volume %; Particle Size Data-Volume % With Diamter Greater Than 10 μm [2, 4]: 3 Volume %; d50 [2, 4]: 0.31 μm; Particle Size Data-Volume % With Diamter Greater Than 0.2 μm [2, 5]: 51 Volume %; Particle Size Data-Volume % With Diamter Greater Than 0.4 μm [2, 5]: 3 Volume %; Particle Size Data-Volume % With Diamter Greater Than 1 μm [2, 5]: 3 Volume %; Particle Size Data-Volume % With Diamter Greater Than 2 μm [2, 5]: 2 Volume %; Particle Size Data-Volume % With Diamter Greater Than 5 μm [2, 5]: 1 Volume %; Particle Size Data-Volume % With Diamter Greater Than 10 μm [2, 5]: 0 Volume %; d50 [2, 5]: 0.21 μm; d50 [2, 6]: less than 1 micron; d95 [2, 6]: less than 1 micron; d50 [2, 7]: less than 0.3 microns; d95 [2, 7]: less than 0.4 microns; d90 (0.4-0.5 mm zirconium silicate, at 60 minutes): about 2 microns; Particle Size Data-Volume % With Diamter Greater Than 2 μm [8]: 95 Volume %; Particle Size Data-Volume % With Diamter Greater Than 5 μm [8]: 48 Volume %; Particle Size Data-Volume % With Diamter Greater Than 10 μm [8]: 10 Volume %; d50 [8]: 4.9 μm; Particle Size Data-Volume % With Diamter Greater Than 1 μm [9]: 68 Volume %; Particle Size Data-Volume % With Diamter Greater Than 2 μm [9]: 21 Volume %; Particle Size Data-Volume % With Diamter Greater Than 5 μm [9]: 4 Volume %; Particle Size Data-Volume % With Diamter Greater Than 10 μm [9]: 0 Volume %; d50 [9]: 1.3 μm; Particle Size Data-Volume % With Diamter Greater Than 1 μm [10]: 50 Volume %; Particle Size Data-Volume % With Diamter Greater Than 2 μm [10]: 11 Volume %; Particle Size Data-Volume % With Diamter Greater Than 5 μm [10]: 2 Volume %; Particle Size Data-Volume % With Diamter Greater Than 10 μm [10]: 4 Volume %; d50 [10]: 1.0 μm; Particle Size Data-Volume % With Diamter Greater Than 1 μm [11]: 94 Volume %; Particle Size Data-Volume % With Diamter Greater Than 2 μm [11]: 22 Volume %; Particle Size Data-Volume % With Diamter Greater Than 5 μm [11]: 23 Volume %; Particle Size Data-Volume % With Diamter Greater Than 10 μm [11]: 18 Volume %; d50 [11]: 1.4 μm; Particle Size Data-Volume % With Diamter Greater Than 2 μm [12]: 4 Volume %; Particle Size Data-Volume % With Diamter Greater Than 5 μm [12]: 0 Volume %; Particle Size Data-Volume % With Diamter Greater Than 10 μm [12]: 2 Volume %; Particle Size Data-Volume % With Diamter Greater Than 1 μm [13]: 58 Volume %; Particle Size Data-Volume % With Diamter Greater Than 2 μm [13]: 6 Volume %; Particle Size Data-Volume % With Diamter Greater Than 5 μm [13]: 2 Volume %; Particle Size Data-Volume % With Diamter Greater Than 10 μm [13]: 0 Volume %; Particle Size Data-Volume % With Diamter Greater Than 1 μm [14]: 53 Volume %; Particle Size Data-Volume % With Diamter Greater Than 2 μm [14]: 7 Volume %; Particle Size Data-Volume % With Diamter Greater Than 5 μm [14]: 2 Volume %; Particle Size Data-Volume % With Diamter Greater Than 10 μm [14]: 2 Volume %; Particle Size Data-Volume % With Diamter Greater Than 1 μm [15]: 54 Volume %; Particle Size Data-Volume % With Diamter Greater Than 2 μm [15]: 8 Volume %; Particle Size Data-Volume % With Diamter Greater Than 5 μm [15]: 0 Volume %; Particle Size Data-Volume % With Diamter Greater Than 10 μm [15]: 2 Volume %; Particle Size Data-Volume % With Diamter Greater Than 1 μm [16]: 56 Volume %; Particle Size Data-Volume % With Diamter Greater Than 2 μm [16]: 21 Volume %; Particle Size Data-Volume % With Diamter Greater Than 5 μm [16]: 8 Volume %; Particle Size Data-Volume % With Diamter Greater Than 10 μm [16]: 12 Volume %; d50 (0.4-0.5 mm zirconium silicate, within about one hour): ~1 micron; starting particle size (before wet milling): 3-4 microns
